Data as given in patent EP1076064A1, “NOVEL ASPARTAME DERIVATIVE CRYSTAL AND PROCESS FOR PRODUCING THE SAME” (Ajinomoto Co., Inc., priority 1998, dated 1999).

Tests used:
[1] = Measurement of the dissolution rate for the dried crystals (dissolution tester); assay type: physicochemical; conditions: 0.5 g crystals in 900 ml ion exchanged water kept at 20 °C, stirring 100 rpm
Experimental: The dissolution rates of the A-type crystals (Reference Example 4 (b)) and the D-type crystals (Example 1) were determined in the following method. The apparatus used was "DISSOLUTION TESTER" (NTR-6100) manufactured by Toyama Sangyo K. K. 0.5 g each of the A-type crystals and D-type crystals were introduced into 900 ml ion exchanged water kept at 20 °C at a stirring in the number of revolution of 100 rpm, and the time which elapsed until the crystals came to be completely dissolved was measured.

[2] = cited from earlier work

COC(=O)[C@H](Cc1ccccc1)NC(=O)[C@H](CC(=O)O)NCCC(C)(C)C [A-type crystals, N-[N-(3,3-dimethylbutyl)-L-α-aspartyl]-L-phenylalanine methyl ester, reference compound]
time which elapsed until the crystals came to be completely dissolved [1]: about 35 minutes

COC(=O)[C@H](Cc1ccccc1)NC(=O)[C@H](CC(=O)O)NCCC(C)(C)C [D-type crystals, N-[N-(3,3-dimethylbutyl)-L-α-aspartyl]-L-phenylalanine methyl ester]
time which elapsed until the crystals came to be completely dissolved [1]: about 5 minutes

COC(=O)[C@H](Cc1ccccc1)NC(=O)[C@H](CC(=O)O)NCCC(C)(C)C [N-(3,3-dimethylbutyl)-APM, N-[N-(3,3-dimethylbutyl)-L-α-aspartyl]-L-phenylalanine methyl ester]
efficacy of sweetness relative to Aspartame ([2]; in weight ratio, versus Aspartame): at least 50 times | efficacy of sweetness relative to sucrose (table sugar) ([2]; versus sucrose (table sugar)): about 10,000 times
